Legend:
lambsquarters = test: Test E preemergence herbicide test; type: in vivo, Chenopodium album; set-up: key: 0 = no effect, 100 = complete control
Source text: (§1) Seeds of plant species selected from corn (Zea mays), soybean (Glycine max), velvetleaf (Abutilon theophrasti), lambsquarters (Chenopodium album), wild poinsettia (Euphorbia heterophylla), pigweed, palmer (palmer pigweed, Amaranthus palmeri), waterhemp (common waterhemp, Amaranthus rudis), surinam grass (Brachiaria decumbens), crabgrass, large (large crabgrass, Digitaria sanguinalis), crabgrass, Brazil (Brazilian crabgrass, Digitaria horizontalis), panicum, fall (fall panicum, Panicum dichotomiflorum), foxtail, giant (giant foxtail, Setaria faberii), foxtail, green (green foxtail, Setaria viridis), goosegrass (Eleusine indica), johnsongrass (Sorghum halepense), ragweed (common ragweed, Ambrosia elatior), barnyardgrass (Echinochloa crus-galli), sandbur (southern sandbur, Cenchrus echinatus), arrowleaf […] rhombifolia), ryegrass, Italian (Italian ryegrass, Lolium multiflorum), dayflower, VA (Virginia dayflower, Commelina virginica), field bindweed (Convolvulus arvensis), morningglory (Ipomoea coccinea), nightshade (eastern black nightshade, Solanum ptycanthum), kochia (Kochia scoparia), nutsedge, yellow (yellow nutsedge, Cyperus esculentus), cocklebur (common cocklebur, Xanthium strumarium), smartweed (ladysthumb smartweed, Polygonum Persicaria) and beggarticks (hairy beggarticks, Bidens pilosa), were planted into a silt loam soil and treated preemergence with test chemicals formulated in a non-phytotoxic solvent mixture which included a surfactant. Treated plants and controls were maintained in a greenhouse for 21 days, after which time all species were compared to controls and visually evaluated. Plant response ratings, summarized in Table E, are based on a scale of 0 to 100 where 0 is no effect and 100 is complete control. A dash (-) response means no test result.

johnsongrass = test: Test E preemergence herbicide test; type: in vivo, Sorghum halepense; set-up: key: 0 = no effect, 100 = complete control
Source text: as §1

Row | SMILES | Plant response rating, Lambsquarters (lambsquarters; 16 g ai/ha) | Plant response rating, Lambsquarters (lambsquarters; 31 g ai/ha) | Plant response rating, Lambsquarters (lambsquarters; 62 g ai/ha) | Plant response rating, Lambsquarters (lambsquarters; 250 g ai/ha) | Plant response rating, Johnsongrass (johnsongrass; 16 g ai/ha) | Plant response rating, Johnsongrass (johnsongrass; 31 g ai/ha) | Plant response rating, Johnsongrass (johnsongrass; 62 g ai/ha) | Plant response rating, Johnsongrass (johnsongrass; 125 g ai/ha) | Plant response rating, Johnsongrass (johnsongrass; 250 g ai/ha) | Plant response rating, Lambsquarters (lambsquarters; 125 g ai/ha)
1 | O=C1NCC(c2ccc(F)cc2)C1C(=O)Nc1ccccc1F (racemic) [Compound 16] | 0 | 0 | 0 | 0 | 0 | 0 | 0 | 0 | 0 | –
2 | O=C1NCC(c2cccc(Br)c2)C1C(=O)Nc1ccccc1F (stereo not drawn) [Compound 66] | 0 | 0 | 0 | 0 | 0 | 0 | 0 | 0 | 0 | 0
3 | O=C1NCC(c2ccc(C(F)(F)F)cc2)C1C(=O)Nc1ccc(F)c(F)c1F (stereo not drawn) [Compound 232] | – | 95 | 98 | 98 | – | 0 | 0 | 0 | 25 | 100
